One assay has as its system Murine norovirus (MNV-1). The experiment in a line: Inactivation of MNV-1 by levulinic acid plus SDS in solution, plaque assay. Conditions: 21° C., 1 min.
In a further assay the test system is S. enteritidis. The experiment in a line: Reduction of S. enteritidis in water treated with organic acids and SDS. It is filed as cell-based, Salmonella enteritidis. The settings on record: for S. enteritidis counts: water, 21° C.; for Salmonella reduction in water: within 30 minutes.
The subject of another assay is L. monocytogenes. It is filed as cell-based, Listeria monocytogenes. Conditions: 21° C.
The next assay has as its system Feline Calicivirus (FCV). The assay is described as follows: Inactivation of FCV by levulinic acid plus SDS in solution, plaque assay. Conditions: 21° C., 1 min.
Assay [1] deals with spores of Bacillus anthracis Sterne (34F2). It is filed as cell-based.
The subject of another assay is yeast species. The assay is described as follows: Effect of levulinic acids plus SDS at 21° C. on various yeast species. Conditions: inoculum […] 10^7 CFU/ml.
The next assay deals with MNV-1. The settings on record: 1,000 ppm, cited from earlier work.
For another assay, the system named is aerobic plate count. The experiment in a line: Produce wash in a 4-L tank: aerobic plate counts (APC). Conditions: time not given.
A further assay has as its system yeasts and molds. The experiment in a line: Produce wash in a 4-L tank: yeast and mold counts. Conditions: time not given.
A further assay has as its system S. typhimurium. The assay is described as follows: Produce wash in a 4-L tank: S. typhimurium counts on apples, celery, onions, cantaloupes.
The mark [2] stands for this setting: Experiment A4 absent heat, RT, 0 min.
Setting [3] is: Experiment A4 absent heat, RT, 1 h.
Setting [4] is: Experiment A4 absent heat, RT, 2 h.
Where [5] appears, read: Experiment A4 absent heat, RT, 3 h.
Setting [6] is: Experiment A4 absent heat, RT, 4 h.
[7] abbreviates: Experiment A4 with heat, 65° C., 0 min.
[8] abbreviates: Experiment A4 with heat, 65° C., 1 h.
The mark [9] stands for this setting: Experiment A4 with heat, 65° C., 2 h.
[10] abbreviates: Experiment A4 with heat, 65° C., 3 h.
Setting [11] is: Experiment A4 with heat, 65° C., 4 h.
Where [12] appears, read: Experiment A5 absent heat, RT, 0 min.
[13] abbreviates: Experiment A5 absent heat, RT, 1 h.
The mark [14] stands for this setting: Experiment A5 absent heat, RT, 2 h.
[15] abbreviates: Experiment A5 absent heat, RT, 3 h.
The mark [16] stands for this setting: Experiment A5 absent heat, RT, 4 h.
Where [17] appears, read: Experiment A5 with heat, 65° C., 0 min.
[18] abbreviates: Experiment A5 with heat, 65° C., 1 h.
[19] abbreviates: Experiment A5 with heat, 65° C., 2 h.
Where [20] appears, read: Experiment A5 with heat, 65° C., 3 h.
The mark [21] stands for this setting: Experiment A5 with heat, 65° C., 4 h.

The values that follow come from patent US20120121679A1, “VIRICIDAL AND MICROBICIDAL COMPOSITIONS AND USES THEREOF” (University of Georgia Research Foundation, Inc., priority 2009, published 2012).

Where two headings read alike, the source gives them in different places.

As for `CCCCCCCCCCCCOS(=O)(=O)[O-].[Na+]` [0.05% SDS, sodium dodecyl sulfate], in the assay with Murine norovirus (MNV-1) (sulfate), the “Log Reduction PFU/ml (standard deviation), MNV-1” value was −0.13 (±0.26) log PFU/ml. In addition, the S. enteritidis counts with S. enteritidis (0 min) worked out at 7.1 log CFU/ml; with S. enteritidis (2 min), 7.0 log CFU/ml; in the assay on S. enteritidis (5 min) it was 7.2 log CFU/ml; in the assay on S. enteritidis (10 min), 7.1 log CFU/ml; in the assay on S. enteritidis (20 min), 7.2 log CFU/ml; in the assay with S. enteritidis (30 min), 7.1 log CFU/ml. In addition, in the assay on S. enteritidis, the “Salmonella reduction in water” value is recorded as “did not reduce Salmonella cell numbers”. The L. monocytogenes counts with L. monocytogenes (0 min) is on record as 6.6 ± 0.3 log CFU/ml; in the assay on L. monocytogenes (2 min), 6.4 ± 0.1 log CFU/ml; in the assay with L. monocytogenes (5 min) it was 6.0 ± 0.1 log CFU/ml; in the assay on L. monocytogenes (10 min), 5.0 ± 0.3 log CFU/ml; in the assay on L. monocytogenes (20 min), 3.8 ± 0.2 log CFU/ml; with L. monocytogenes (30 min) it was 3.3 ± 0.1 log CFU/ml. Also, the “Log Reduction PFU/ml (standard deviation), FCV” value in the assay on Feline Calicivirus (FCV) (sulfate) is recorded as −0.12 (±0.23) log PFU/ml.

Consider `CC(=O)CCC(=O)O` [1.0% levulinic acid, levulinic acid], for which the “Log Reduction PFU/ml (standard deviation), MNV-1” value in the assay with Murine norovirus (MNV-1) (listed as 1% Levulinic acid) is −0.04 (±0.23) log PFU/ml. For the same molecule, in the assay with S. enteritidis (listed as 1% by weight levulinic acid), the “Salmonella reduction in water” value is not above 1 log CFU/ml. Besides, the “Log Reduction PFU/ml (standard deviation), FCV” value with Feline Calicivirus (FCV) (listed as 1% Levulinic acid) is on record as 0.32 (±0.19) log PFU/ml.

`CCCCCCCCCCCCOS(=O)(=O)[O-].[Na+]` [2% SDS, sodium dodecyl sulfate]: the “Log Reduction PFU/ml (standard deviation), MNV-1” value with Murine norovirus (MNV-1) (sulfate) was −0.23 (±0.59) log PFU/ml. In addition, the “Recovery levels over time” value in [1] (Experiment A3) was “did not decrease”. Moreover, the “CFU/ml % recovery (as compared to control flask F)” value (“CFU/ml % recovery” below) in assay [1] (Experiment A3, 0 min) was determined as 119%; in assay [1] (Experiment A3, 10 min), 65%; in [1] (Experiment A3, 45 min), 94%; in [1] (Experiment A3, 90 min) it was 144%; in assay [1] (Experiment A3, 180 min), 95%; in assay [1] (setting [2]) it was 85%. The “CFU/ml % recovery” value was 90% in assay [1] (setting [3]); 87% in [1] (setting [4]); 98% in assay [1] (setting [5]); 79% in [1] (setting [6]); 48% in assay [1] (setting [7]); 53% in [1] (setting [8]). The “CFU/ml % recovery” value in assay [1] (setting [9]) is 74%; in [1] (setting [10]), 68%; in assay [1] (setting [11]) it was 114%; in [1] (setting [12]) it was 122%; in [1] (setting [13]), 117%; in assay [1] (setting [14]), 103%. Further, the “CFU/ml % recovery” value is on record as 113% in [1] (setting [15]); 103% in [1] (setting [16]); 71% in [1] (setting [17]); 69% in [1] (setting [18]); 53% in assay [1] (setting [19]); 71% in assay [1] (setting [20]). For the same molecule, the “CFU/ml % recovery” value in [1] (setting [21]) is 54%. Moreover, the “effectiveness compared with water control F” value in assay [1] (Experiments A4, A5) is listed as “not more effective than the water control F”. Moreover, the “Log Reduction PFU/ml (standard deviation), FCV” value with Feline Calicivirus (FCV) (sulfate) is reported as −0.05 (±0.22) log PFU/ml.

On to `CC(=O)CCC(=O)O` [2.0% levulinic acid, levulinic acid], for which the “Log Reduction PFU/ml (standard deviation), MNV-1” value in the assay with Murine norovirus (MNV-1) (listed as 2% Levulinic acid) is recorded as −0.06 (±0.17) log PFU/ml. Besides, in the assay with yeast species (Debaryomyces hansenii), the “Yeast counts at 2 min” value came to 4.9 log CFU/ml, the “Yeast counts at 5 min” value is 4.6 log CFU/ml, the “Yeast counts at 20 min” value is recorded as 4.7 log CFU/ml and the “Yeast counts at 30 min” value was 3.0 log CFU/ml. In addition, the “Yeast counts at 60 min” value with yeast species (Debaryomyces hansenii) is given as 1.3 log CFU/ml. In the assay on yeast species (Geotrichum candidum), the “Yeast counts at 2 min” value came to 4.4 log CFU/ml, the “Yeast counts at 5 min” value amounted to 4.3 log CFU/ml, the “Yeast counts at 20 min” value came to 3.8 log CFU/ml and the “Yeast counts at 30 min” value was found to be 3.4 log CFU/ml. Also, the “Yeast counts at 60 min” value with yeast species (Geotrichum candidum) amounted to 2.0 log CFU/ml. In addition, in the assay with yeast species (Saccharomyces cerevisiae), the “Yeast counts at 2 min” value came to 5.5 log CFU/ml, the “Yeast counts at 5 min” value amounted to 5.4 log CFU/ml, the “Yeast counts at 20 min” value was 5.3 log CFU/ml and the “Yeast counts at 30 min” value was 5.5 log CFU/ml. The “Yeast counts at 60 min” value in the assay with yeast species (Saccharomyces cerevisiae) stood at 5.0 log CFU/ml. In the assay with yeast species (Zygosaccharomyces bailii), the “Yeast counts at 2 min” value came to 5.5 log CFU/ml, the “Yeast counts at 5 min” value is on record as 5.4 log CFU/ml, the “Yeast counts at 20 min” value is 5.4 log CFU/ml and the “Yeast counts at 30 min” value is recorded as 5.4 log CFU/ml. Besides, the “Yeast counts at 60 min” value in the assay on yeast species (Zygosaccharomyces bailii) is reported as 5.3 log CFU/ml. Moreover, the “Log Reduction PFU/ml (standard deviation), FCV” value in the assay with Feline Calicivirus (FCV) (listed as 2% Levulinic acid) is on record as 0.51 (±0.34) log PFU/ml.

Turning to `CC(=O)CCC(=O)O` [3.0% levulinic acid, levulinic acid], in the assay on Murine norovirus (MNV-1) (listed as 3% Levulinic acid), the “Log Reduction PFU/ml (standard deviation), MNV-1” value was −0.09 (±0.10) log PFU/ml. Further, the entries for the “Salmonella reduction in water” value in the assay with S. enteritidis and with S. enteritidis (listed as 3% levulinic acid) were 3.4 log CFU/ml and “about 3.4 log CFU/ml”, respectively. The “CFU/ml % recovery” value was 108% in [1] (Experiment A3, 0 min); 81% in assay [1] (Experiment A3, 10 min); 55% in [1] (Experiment A3, 45 min); 64% in assay [1] (Experiment A3, 90 min); 89% in [1] (setting [2]); 54% in assay [1] (setting [3]). Besides, the “CFU/ml % recovery” value in assay [1] (setting [4]) is 27%; in assay [1] (setting [5]), 30%; in assay [1] (setting [6]), 15%; in [1] (setting [7]) it was 70%; in assay [1] (setting [8]), 78%; in [1] (setting [9]) it was 45%. Besides, the “CFU/ml % recovery” value was 33% in assay [1] (setting [10]); 46% in assay [1] (setting [11]); 105% in assay [1] (setting [12]); 80% in assay [1] (setting [13]); 46% in assay [1] (setting [14]); 67% in [1] (setting [15]). The “CFU/ml % recovery” value in [1] (setting [16]) is recorded as 37%; in assay [1] (setting [17]), 75%; in assay [1] (setting [18]), 58%; in assay [1] (setting [19]), 34%; in assay [1] (setting [20]), 34%; in [1] (setting [21]), 14%. Further, the “Log Reduction PFU/ml (standard deviation), FCV” value in the assay on Feline Calicivirus (FCV) (listed as 3% Levulinic acid) is 0.43 (±0.23) log PFU/ml.

For the molecule `OCl` [sodium hypochlorite solution, sodium hypochlorite], the “reduction in MNV-1 infectivity” value with MNV-1 (food residuals present on the surfaces) is on record as “minimal reductions in MNV-1 infectivity”. In addition, the “reduction of viable MNV-1” value in the assay on MNV-1 (viruses dried on stainless steel surfaces without food residuals) is reported as > 4 log Most Probable Number (MPN)/ml.

Turning to “acidified sodium chlorite [50 ppm acidified sodium chlorite]”, the “reduction of APC on onions” value in the assay with aerobic plate count is listed as less than 0.5 log CFU/onion. In the assay with yeasts and molds, the “reduction of yeast and mold counts on onions” value is less than 0.5 log CFU/onion. The “average reduction of S. typhimurium on cantaloupes” value with S. typhimurium (2 min (Example 42)) is 0.19 log CFU per cantaloupe. In the assay with S. typhimurium (time not given), the “reduction of S. typhimurium on onions” value is less than 0.5 log CFU/onion. Moreover, in the assay with S. typhimurium (treatment time 2 min (Example 42)), the “average S. typhimurium count on cantaloupes” value amounted to 3.43 log CFU per cantaloupe.
